In US10626178B2, “Treatment of mood and stress related disorders” (priority 2013, dated 2020):

How the values were obtained:
CUS-exposed mice [1] = assay: Sucrose preference test; assay type: in vivo
Experimental: (§1) Subjects were exposed to chronic unpredictable stress (CUS), consisting of daily exposure to two stressors in a random order over a 5-week period. The effect of a shorter period of unpredictable stress was examined by exposing mice to various combinations of 2-3 of the same stressors over a period of 2 days. The list of CUS stressors included: cage shaking for 1 h with loud music and lights, on, lights on during the entire night (12 h), lights-off for 3 h during the daylight phase, flashing (stroboscopic) light for 6 h, placement in 4° C. cold room for 1 h, mild restraint (in small cages) for 2 h, 45° cage tilt for 14 h, wet cage for 14 h, exposure to fox, ferret, bobcat, or coyote smell for 2 h, noise in the room for 3 h, and water deprivation for 12 h during the dark period. Following baseline adaptation to sucrose for several days, animals were presented in the beginning of the dark circadian phase with two graduated drinking tubes, one containing tap water and the other 2% sucrose solution for 3 hr. Sucrose preference was calculated as the percent of sucrose consumption out of the total drinking volume.

DG microglia = DG microglia number and morphology after unpredictable stress (US/CUS); assay type: in vivo, mice
Experimental: as §1, with “period.” for “period. Following baseline adaptation to sucrose for several days, animals were presented in the beginning of the dark circadian phase with two graduated drinking tubes, one containing tap water and the other 2% sucrose solution for 3 hr. Sucrose preference was calculated as the percent of sucrose consumption out of the total drinking volume.”
Animals were perfused trans-cardially with cold PBS followed by 4% paraformaldehyde in 0.1 M PBS, and the brains were quickly removed and placed in 4% paraformaldehyde. After 24 h the brains were placed in 30% sucrose solution in PBS and then frozen in OCT.
In some experiments microglia were visualized using an antibody to the microglia activation marker ionized calcium-binding adapter molecule-1 (Iba-1). Brain sections were first fixed in 2% paraformaldehyde, and after 3 PBS washes they were incubated over-night in 3% normal goat serum in 5% BSA with the primary antibody (rabbit anti Iba-1 1:220, Wako, Japan) at 4° C. Sections were then incubated with the secondary antibody (goat anti rabbit, 1:200; Invitrogen) for 1 hour at RT and counter-stained with DAPI (Sigma, Israel).
(§2) Images were captured using Nikon Eclipse fluorescent microscope and CI Nikon confocal microscope and camera. The number of GFP-labeled microglia (and in some studies the number of BrdU-labeled microglia and other cells), as well and the microglial soma area were automatically measured at ×10 magnification in a defined area exclusively containing the entire Dentate Gyrus or prelimbic cortex, for each slide, using Nikon Imaging Elements Software (NIS-Elements). Microglia processes length was measured by capturing images at 40× magnification and by manual tracing of the processes of 4 randomly selected cells/section their processes using the NIS Elements software.

CUS-exposed mice [2] = assay: CUS model, overall depressive-like behavior; assay type: in vivo
Experimental: as §1, with “period.” for “period. Following baseline adaptation to sucrose for several days, animals were presented in the beginning of the dark circadian phase with two graduated drinking tubes, one containing tap water and the other 2% sucrose solution for 3 hr. Sucrose preference was calculated as the percent of sucrose consumption out of the total drinking volume.”

CUS-exposed mice [3] = assay: Social exploration test; assay type: in vivo; conditions: for social exploration time: 5-weeks CUS-exposed mice treated for 2 additional weeks of CUS
Experimental: Subjects were exposed to chronic unpredictable stress (CUS), consisting of daily exposure to two stressors in a random order over a 5-week period. The effect of a shorter period of unpredictable stress was examined by exposing mice to various combinations of 2-3 of the same stressors over a period of 2 days. The list of CUS stressors included: cage shaking for 1 h with loud music and lights, on, lights on during the entire night (12 h), lights-off for 3 h during the daylight phase, flashing (stroboscopic) light for 6 h, placement in 4° C. cold room for 1 h, mild restraint (in small cages) for 2 h, 45° cage tilt for 14 h, wet cage for 14 h, exposure to fox, ferret, bobcat, or coyote smell for 2 h, noise in the room for 3 h, and water deprivation for 12 h during the dark period. Each subject was placed in an observation cage and allowed to habituate to the cage for 15 min, following which a male juvenile was placed in the cage. Social exploration, defined as the time of near contact between the nose of the subject and the juvenile conspecific, was then recorded for three minutes, using computerized in-house software.

CUS-exposed mice [4] = assay: Porsolt forced swim test; assay type: in vivo
Experimental: Subjects were exposed to chronic unpredictable stress (CUS), consisting of daily exposure to two stressors in a random order over a 5-week period. […] The list of CUS stressors included: cage shaking for 1 h with loud music and lights, on, lights on during the entire night (12 h), lights-off for 3 h during the daylight phase, flashing (stroboscopic) light for 6 h, placement in 4° C. cold room for 1 h, mild restraint (in small cages) for 2 h, 45° cage tilt for 14 h, wet cage for 14 h, exposure to fox, ferret, bobcat, or coyote smell for 2 h, noise in the room for 3 h, and water deprivation for 12 h during the dark period.
Mice were placed in 20 cm diameter glass cylinder filled to 10 cm with 21° C. water and their behavior was analyzed for five min. The time spent in immobility, defined as the absence of all movement except motions required to maintain the animal's head above the water, and the latency to first immobility episode were recorded using an in-house computerized software.

DG cells = assay: BrdU labeling of DG cells (neurogenesis / proliferation); assay type: in vivo, mice; conditions: M-CSF 100 μg/kg i.p. daily for 5 days
Experimental: BrdU immunofluorescent staining was performed on 8 μm frozen brain sections, fixated in 50% formamide/2×SCC (0.3M NaCl and 0.03 M sodium citrate) for 2 hours at 65° C. After one wash with 2×SCC, sections were incubated in 2 N HCl for 30 minutes at 37° C. Sections were then rinsed in 0.1 M boric acid at pH 8.5 and washed 3 times in PBS, following which they were incubated in 3% normal goat serum in 1% BSA/0.1% Triton for 30 min at room temperature and then incubated with rat monoclonal anti-BrdU antibody (1:200, AbD serotec) for 48 hours at 4° C. […]
as §2

[5] = 5-weeks CUS, drug beginning two days before and throughout CUS
[6] = 5-weeks CUS-exposed mice treated for 2 additional weeks of CUS (imipramine, minocycline in drinking water; GM-CSF i.p. 3 time/week)
[7] = 5-weeks CUS-exposed mice treated for 2 additional weeks of CUS
[8] = CUS-exposed mice, M-CSF 100 μg/kg i.p. daily for 5 days

In the case of `CN(C)CCCN1c2ccccc2CCc2ccccc21` [imipramine, reference compound], the sucrose preference (CUS-exposed mice [1]; [5]) is reported as “prevented the CUS-induced reductions in sucrose preference”, the DG microglia number (DG microglia; [6]) is reported as “no differences from any of the groups” and the hippocampal microglia number (DG microglia; [5]) is reported as “blocked the CUS-induced decline in hippocampal microglia number”. The microglia processes length (DG microglia; [5]) was “blocked the CUS-induced decline”, the microglia soma size (DG microglia; [5]) was “blocked the CUS-induced decline” and the “number of hippocampal (DG) microglia” value (DG microglia; 2 days of US exposure, drug via drinking water beginning 2 days before US initiation (minocycline 40, imipramine 20 mg/kg/day)) was “completely reversed the increase in hippocampal microglia”. For the same molecule, the “effect on established CUS-induced depressive-like behavior” value (CUS-exposed mice [2]; administration to mice with established CUS-induced depressive-like behavior) was “produced minimal beneficial effects”, the social exploration time (CUS-exposed mice [3]) was “further reductions were evident” and the social exploration (CUS-exposed mice [3]; [5]) was “prevented the CUS-induced reductions”. For the same molecule, the floating time (CUS-exposed mice [4]; [7]) was “showed no difference from non-stressed controls”.

GM-CSF was tested, and the sucrose preference (CUS-exposed mice [1]; [7]) was “completely reversed the suppressive effects of CUS on sucrose preference”, the DG microglia number (DG microglia; [6]) was “significantly greater number of microglia as compared with the control CUS-exposed mice” and the social exploration time (CUS-exposed mice [3]) was “induced an elevation in the social exploration time”. For the same molecule, the floating time (CUS-exposed mice [4]; [7]) was “showed no difference from non-stressed controls”.

In the case of “IL-1β: microglia-stimulating cytokine interleukin-1β, given intra-hippocampally”, the “microglia number and morphology” value (DG microglia; acute intra-hippocampal administration in WT mice) is reported as “mimicked the effects of short-term US on microglia number and morphology”.

B1: M-CSF: Macrophage colony-stimulating factor, homodimer glycoprotein; microglia activator (protein, UniProt P09603 33-554, looked up)
Macrophage colony-stimulating …: EEVSEYCSHMIGSGHLQSLQRLIDSQMETSCQITFEFVDQEQLKDPVCYLKKAFLLVQDIMEDTMRFRDNTPNAIAIVQLQELSLRLKSCFTKDYEEHDKACVRTFYETPLQLLEKVKNVFNETKNLLDKDWNIFSKNCNNSFAECSSQDVVTKPDCNCLYPKAIPSSDPASVSPHQPLAPSMAPVAGLTWEDSEGTEGSSLLPGEQPLHTVDPGSAKQRPPRSTCQSFEPPETPVVKDSTIGGSPQPRPSVGAFNPGMEDILDSAMGTNWVPEEASGEASEIPVPQGTELSPSRPGGGSMQTEPARPSNFLSASSPLPASAKGQQPADVTGTALPRVGPVRPTGQDWNHTPQKTDHPSALLRDPPEPGSPRISSLRPQGLSNPSTLSAQPQLSRSHSSGSVLPLGELEGRRSTRDRRSPAEPEGGPASEGAARPLPRFNSVPLTDTGHERQSEGSFSPQLQESVFHLLVPSVILVLLAVGGLLFYRWRRRSHQEPQRADSPLEQPEGSPLTQDDRQVELPV
B1 was tested, and the sucrose preference (CUS-exposed mice [1]; [8]) was “completely reversed the suppressive effects of CUS on sucrose preference”, the DG microglia number (DG microglia; control and CUS-exposed mice, M-CSF 100 μg/kg i.p. daily for 5 days) was “overall increase in DG microglia number, completely normalizing microglia number in CUS-exposed mice” and the depressive-like behavioral symptoms (CUS-exposed mice [2]; CUS-exposed mice) was “completely reversed the depressive symptoms after a few days of treatment”. For the same molecule, the depressive symptoms (CUS-exposed mice [2]; non-stressed mice) was “did not cause depressive symptoms in non-stressed mice”, the social exploration (CUS-exposed mice [3]; [8]) was “completely reversed the suppressive effects of CUS” and the floating time (CUS-exposed mice [4]; [8]) was “reversed”. For the same molecule, the “latency to first float” value (CUS-exposed mice [4]; [8]) was “did not reach statistical significance”, the “generation of new (BrdU-labeled) DG cells that are not microglia” value (DG cells; CUS-exposed mice) was “marked increase in the generation of new (BrdU-labeled) DG cells that are not microglia” and the “microglia proliferation (GFP microglia co-labeled for BrdU)” value (DG cells) was “overall increase in microglia proliferation”.
